{"source": "paper PMC3434039", "about": "“Overexpression of an exotic thermotolerant β-glucosidase in trichoderma reesei and its significant increase in cellulolytic activity and saccharification of barley straw” (Microbial Cell Factories, 2012)", "biological_target": "T1, Periconia sp. BGLI (recombinant β-glucosidase, bgl1) (Periconia sp. BCC 2871, UniProt A9UIG0, T284I/N305T)", "T1 construct": "full-length bgl1 (2601 bp cDNA, own signal peptide) expressed in T. reesei QM9414 under tef1 promoter, secreted, culture supernatant; predicted about 95 kDa, glycosylated", "T1 sequence (A9UIG0 entry or part of it T284I/N305T)": "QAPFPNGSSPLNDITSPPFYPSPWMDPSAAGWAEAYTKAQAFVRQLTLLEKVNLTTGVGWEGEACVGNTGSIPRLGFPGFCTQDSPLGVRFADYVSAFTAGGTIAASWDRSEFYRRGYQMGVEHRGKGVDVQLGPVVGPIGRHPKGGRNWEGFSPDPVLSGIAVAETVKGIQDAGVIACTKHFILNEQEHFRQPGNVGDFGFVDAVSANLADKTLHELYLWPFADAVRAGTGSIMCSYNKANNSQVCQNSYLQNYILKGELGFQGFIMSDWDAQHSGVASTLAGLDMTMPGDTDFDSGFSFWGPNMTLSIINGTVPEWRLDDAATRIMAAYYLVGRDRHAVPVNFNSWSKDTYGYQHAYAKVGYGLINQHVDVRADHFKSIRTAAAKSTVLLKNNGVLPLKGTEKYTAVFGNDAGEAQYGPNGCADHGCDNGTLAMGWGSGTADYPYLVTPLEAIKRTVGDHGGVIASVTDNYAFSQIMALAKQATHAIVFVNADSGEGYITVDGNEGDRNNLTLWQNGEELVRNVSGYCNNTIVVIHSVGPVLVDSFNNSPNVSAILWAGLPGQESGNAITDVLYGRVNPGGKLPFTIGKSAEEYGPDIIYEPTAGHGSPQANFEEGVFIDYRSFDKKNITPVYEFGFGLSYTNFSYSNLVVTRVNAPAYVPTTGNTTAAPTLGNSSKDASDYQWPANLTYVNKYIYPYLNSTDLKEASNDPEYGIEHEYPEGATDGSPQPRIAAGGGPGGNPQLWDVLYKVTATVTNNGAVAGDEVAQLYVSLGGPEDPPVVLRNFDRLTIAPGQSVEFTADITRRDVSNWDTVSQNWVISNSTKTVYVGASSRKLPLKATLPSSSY", "assay": "MUG zymogram after native PAGE of culture supernatant", "format": "biochemical", "conditions": "5 mM MUG, 50 mM sodium citrate, pH 5.0, 70 °C, 10 min", "excerpt": "MUG zymogram after native PAGE of culture supernatant on Periconia sp.", "data": [{"smiles": "Cc1cc(=O)oc2cc(O[C@@H]3O[C@H](CO)[C@@H](O)[C@H](O)[C@H]3O)ccc12", "note": "[4-methylumbelliferyl β-D-glucopyranoside]", "values": [{"measurement": "MUG zymogram after native PAGE of culture supernatant", "value": "second active β- glucosidase with higher molecular weight was only obtained from the transformants"}]}]}
